We go through eleven compounds from patent publication US20100210654A1, “NOVEL P2Y12 RECEPTOR ANTAGONISTS” (RHEINISCHE FRIEDRICH-WILHELMS UNIVERSITÄT BONN, priority 2007, published 2010).

Each structure is given as a SMILES string. A value given as a limit tells only on which side of the number the result lay.

A word on the IC50: it is the concentration at which inhibition is half-maximal. The term Ki denotes the dissociation constant of the complex between target and ligand, obtained from inhibition or displacement.

In assay [1] the target is T1, P2Y12 (Homo sapiens, UniProt Q9H244). As to the kind of experiment: GTP shift experiments (radioligand binding in presence and absence of GTP). Set-up: Membranes were prepared from human outdated platelets from the blood bank; from tissue; host or cells: human platelets (University of Bonn blood bank), membrane preparation. As to conditions: presence and absence of GTP (100 μM); no shift = antagonist rather than agonist. Here is the method:
(§1) Radioligand binding assays were performed using 5 nM [^3H]PSB-0413 and 100 μg of protein in Tris-HCl buffer 50 mM, pH 7.4, as previously described. (El-Tayeb, A., Griessmeier, K. J, Müller, C. E. Bioorg. Med. Chem. Lett. 2005, 15, 5450-52; Atzler, K. Doctoral Thesis, University of Bonn, 2006). Competition by 10 μM of test compound was initially determined. The mixture was incubated for 1 h at rt followed by filtration through GF/B filters. Nonspecific binding was determined with 1 mM ADP or 250 μM RB 2. […] At least three independent experiments were performed each in triplicate.
Selected compounds were investigated for their functionality in GTP shift experiments. Radioligand binding studies as described above were performed in the presence and absence of GTP (100 μM).
Target sequence in this assay (Q9H244 whole entry): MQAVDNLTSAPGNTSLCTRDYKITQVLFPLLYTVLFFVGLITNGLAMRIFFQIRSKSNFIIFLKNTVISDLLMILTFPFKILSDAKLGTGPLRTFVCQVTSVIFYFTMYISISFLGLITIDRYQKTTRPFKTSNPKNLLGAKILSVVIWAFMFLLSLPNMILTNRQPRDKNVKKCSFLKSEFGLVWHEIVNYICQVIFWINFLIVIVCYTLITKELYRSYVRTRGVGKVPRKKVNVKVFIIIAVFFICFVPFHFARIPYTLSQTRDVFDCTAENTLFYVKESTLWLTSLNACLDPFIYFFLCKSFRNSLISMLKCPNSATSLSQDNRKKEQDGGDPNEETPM

The target of another assay is rP2Y6 Receptor (Rattus norvegicus, UniProt Q63371). As to the kind of experiment: Inhibition of agonist-induced calcium mobilization, recombinant receptor in human astrocytoma cells. The assay is classed as cell-based. The settings on record: mean ± SEM. Here is the method: (§2) Inhibition of agonist-induced calcium mobilization was determined as previously described (Kaulich M. et al, Drug Dev. Res. 2003, 59, 72-81) using NG108-15 cells for the mouse P2Y2 receptor, or human recombinant P2Y receptors stably expressed in human astrocytoma cells (El-Tayeb, A. et al., J. Med. Chem. 2006, 49, 7076-87).
rP2Y6 Receptor, sequence (Q63371 whole entry): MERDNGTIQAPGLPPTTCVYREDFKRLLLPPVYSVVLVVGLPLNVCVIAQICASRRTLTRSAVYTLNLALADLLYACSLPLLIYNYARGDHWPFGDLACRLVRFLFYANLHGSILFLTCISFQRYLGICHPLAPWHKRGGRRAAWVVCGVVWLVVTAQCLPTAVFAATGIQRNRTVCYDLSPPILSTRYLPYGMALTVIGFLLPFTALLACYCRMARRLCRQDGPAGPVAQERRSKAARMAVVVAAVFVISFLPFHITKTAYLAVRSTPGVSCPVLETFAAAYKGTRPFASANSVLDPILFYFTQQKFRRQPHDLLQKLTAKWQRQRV
(§3) The data were analyzed using GraphPad Prism 4.0 (GraphPad Software, Inc., San Diego, Calif.).
(A change in cytosolic calcium serves as a functional read-out for many receptors and channels.)

Another assay deals with hP2Y4 Receptor (Homo sapiens, UniProt P51582). The description is as above. The assay is classed as cell-based. As to conditions: mean ± SEM. The method, then:
as §2, §3

In assay [2] the target is T2, human platelet P2Y12 receptors (Homo sapiens, UniProt Q9H244).
T2 construct: Membranes were prepared from human outdated platelets from the blood bank; from tissue; host or cells: human platelets (University of Bonn blood bank), membrane preparation
T2 sequence (Q9H244 whole entry): as the sequence (Q9H244 whole entry) above
As to the kind of experiment: Radioligand binding assay with [3H]PSB-0413 at human platelet membranes. The settings on record: human platelet membranes, 5 nM [3H]PSB-0413, 1 h at rt; mean ± SEM; read-out: hP2Y12 Receptor Ki [μM ± SEM] vs. [3H]PSB-0413. Here is the method:
Membranes were prepared from human outdated platelets from the blood bank. Outdated human platelets were obtained from the University of Bonn blood bank 4-5 days after donation. Platelet rich plasma was washed by centrifugation (10 min at 1000 g) in a buffer consisting of 50 mM Tris-HCl, pH 7.4, 5 mM EDTA and 150 mM NaCl. The supernatant was centrifuged twice (48400 g for 60 min) and the resultant platelet pellet were resuspended in 5 mM Tris-HCl (pH 7.4) containing 5 mM EDTA. The platelets were homogenized by a homogenizer. The final suspension was stored frozen as multiple aliquots at −80° C. until needed. Protein concentrations were determined by the method of Lowry using a Sigma Chemie protein assay kit.
as §1, §3

Another assay has as its target T3, hP2Y2 Receptor (Homo sapiens, UniProt P41231).
T3 construct: expressed in transfected cells; host or cells: human astrocytoma cells
As to the kind of experiment: Inhibition of agonist-induced calcium mobilization, recombinant receptor in human astrocytoma cells. The assay is classed as cell-based. The settings on record: mean ± SEM. Here is the method:
as §2, §3

A further assay concerns the target mouse P2Y2 receptor (Mus musculus, UniProt P35383). As to the kind of experiment: Inhibition of agonist-induced calcium mobilization in NG108-15 cells. The assay is classed as cell-based. The settings on record: mean ± SEM, read-out: mP2Y2 Receptor IC50 (μM ± SEM). Here is the method:
as §2, §3

In assay [3] the target is T1, P2Y12. As to conditions: recent review article (Abbracchio et al. 2006); read-out: Ki value as P2Y12 antagonist; cited from earlier work.
Target sequence in this assay (Q9H244 whole entry, species assumed): as the sequence (Q9H244 whole entry) above

hP2Y4 Receptor, sequence (P51582 whole entry): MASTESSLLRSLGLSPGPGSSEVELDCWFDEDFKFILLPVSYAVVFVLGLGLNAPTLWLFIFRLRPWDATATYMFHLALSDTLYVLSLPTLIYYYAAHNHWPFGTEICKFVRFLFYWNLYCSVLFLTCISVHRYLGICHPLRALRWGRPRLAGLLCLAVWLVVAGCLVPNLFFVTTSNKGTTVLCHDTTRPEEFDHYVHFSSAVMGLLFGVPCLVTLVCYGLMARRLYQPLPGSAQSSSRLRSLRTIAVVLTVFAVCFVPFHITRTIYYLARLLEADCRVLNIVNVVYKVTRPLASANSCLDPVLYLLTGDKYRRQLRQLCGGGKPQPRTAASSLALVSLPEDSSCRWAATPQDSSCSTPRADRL
T3 sequence (P41231 whole entry): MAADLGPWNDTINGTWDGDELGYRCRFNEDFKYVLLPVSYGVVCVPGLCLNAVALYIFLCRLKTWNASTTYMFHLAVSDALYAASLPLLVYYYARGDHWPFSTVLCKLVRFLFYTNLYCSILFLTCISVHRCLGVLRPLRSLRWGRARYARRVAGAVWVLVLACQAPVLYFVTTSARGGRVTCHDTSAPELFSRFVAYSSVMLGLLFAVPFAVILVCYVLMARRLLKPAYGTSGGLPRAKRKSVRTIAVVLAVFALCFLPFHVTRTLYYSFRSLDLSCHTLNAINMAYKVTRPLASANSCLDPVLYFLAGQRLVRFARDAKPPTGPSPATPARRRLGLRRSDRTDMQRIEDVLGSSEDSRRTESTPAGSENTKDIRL
mouse P2Y2 receptor, sequence (P35383 whole entry): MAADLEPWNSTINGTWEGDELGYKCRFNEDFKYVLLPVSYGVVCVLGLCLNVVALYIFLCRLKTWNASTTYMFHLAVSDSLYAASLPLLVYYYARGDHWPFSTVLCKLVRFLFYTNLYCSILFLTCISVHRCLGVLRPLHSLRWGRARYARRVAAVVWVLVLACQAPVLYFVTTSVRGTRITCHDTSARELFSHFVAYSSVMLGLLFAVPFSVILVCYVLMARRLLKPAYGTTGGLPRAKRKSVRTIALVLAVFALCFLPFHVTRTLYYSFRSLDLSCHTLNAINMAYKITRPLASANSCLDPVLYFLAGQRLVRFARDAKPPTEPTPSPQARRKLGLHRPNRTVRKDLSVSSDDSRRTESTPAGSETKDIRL

Take `Nc1ncnc2c1ncn2[C@@H]1O[C@H](COP(=O)(O)OP(=O)(O)O)[C@@H](O)[C@H]1O` [ADP, reference compound]: the “right-shift of the concentration-inhibition curve in GTP shift experiments” value on P2Y12 [1] is recorded as “significant right-shift”.

In the case of `Nc1ccc(Nc2cc(S(=O)(=O)O)c(N)c3c2C(=O)c2ccccc2C3=O)cc1S(=O)(=O)O` [Entry 5], the IC50 on rP2Y6 Receptor was found to be 24.3 ± 3.4 µM; on hP2Y4 Receptor it was 11 ± 3 µM. Also, the inhibition constant (Ki) in assay [2] was 2.39 ± 0.65 µM.

For `Nc1c(S(=O)(=O)O)cc(Nc2ccc(Cl)cc2)c2c1C(=O)c1ccccc1C2=O` [Entry 15], the IC50 at hP2Y2 Receptor was 4.46 ± 0.75 µM; at rP2Y6 Receptor, greater than 10 µM; on hP2Y4 Receptor, greater than 3 µM; at mouse P2Y2 receptor, 20 ± 7 µM. Also, the Ki in assay [2] amounted to 7.35 ± 1.72 µM.

For the compound `Nc1c(S(=O)(=O)O)cc(Nc2ccccc2)c2c1C(=O)c1ccccc1C2=O` [Entry 17], the IC50 at hP2Y2 Receptor came to 5.61 ± 0.47 µM; at mouse P2Y2 receptor, 11.1 ± 3 µM. The Ki in assay [2] stood at 9.83 ± 2.43 µM.

On to `Nc1c(S(=O)(=O)O)cc(Nc2ccc(Nc3ccccc3)cc2)c2c1C(=O)c1ccccc1C2=O` [Entry 18], for which the IC50 at rP2Y6 Receptor is greater than 1 µM; on hP2Y4 Receptor, greater than 3 µM; on mouse P2Y2 receptor it was 30 ± 7 µM. For the same compound, the inhibitory constant (Ki) in assay [2] turned out to be 1.85 ± 0.57 µM.

Consider `Nc1c(S(=O)(=O)O)cc(Nc2cccc3ccccc23)c2c1C(=O)c1ccccc1C2=O` [Entry 25], for which the IC50 at hP2Y2 Receptor was determined as 6.67 ± 0.32 µM; at rP2Y6 Receptor it was 26.7 µM; on hP2Y4 Receptor, 10.1 ± 1.4 µM; on mouse P2Y2 receptor, 10.7 ± 1 µM.

As to `Nc1c(S(=O)(=O)O)cc(Nc2cccc(Cl)c2)c2c1C(=O)c1ccccc1C2=O` [Entry 27], the half-maximal inhibitory concentration (IC50) is 24.5 ± 10.4 µM on hP2Y2 Receptor, greater than 100 µM at rP2Y6 Receptor and greater than 3 µM at hP2Y4 Receptor. Further, the Ki in assay [2] was 6.76 ± 2.07 µM.

Take `Nc1c(S(=O)(=O)O)cc(Nc2cccc([N+](=O)[O-])c2)c2c1C(=O)c1ccccc1C2=O` [Entry 28]: on hP2Y2 Receptor, the IC50 was determined as 7.52 ± 0.82 µM.

As for `Nc1c(S(=O)(=O)[O-])cc(Nc2ccc(Nc3ncccn3)c(S(=O)(=O)[O-])c2)c2c1C(=O)c1ccccc1C2=O.[Na+].[Na+]` [Entry 33], the values for the IC50 on rP2Y6 Receptor and on hP2Y4 Receptor were 28.6 ± 2.7 µM and 9.04 ± 1.2 µM, respectively. Also, in assay [2], the Ki amounted to 0.0507 ± 0.016 µM. At P2Y12 [1], the “right-shift of the concentration-inhibition curve in GTP shift experiments” value was “did not”.

As for `COc1nc(Cl)nc(Nc2ccc(Nc3cc(S(=O)(=O)[O-])c(N)c4c3C(=O)c3ccccc3C4=O)cc2S(=O)(=O)[O-])n1.[Na+].[Na+]` [Entry 37], in assay [2], the Ki is 0.66 ± 0.12 µM. Moreover, the “right-shift of the concentration-inhibition curve in GTP shift experiments” value at P2Y12 [1] is listed as “did not”.

On to `Nc1c(S(=O)(=O)O)cc(Nc2ccc(Nc3nc(Cl)nc(Nc4cccc(S(=O)(=O)O)c4)n3)c(S(=O)(=O)O)c2)c2c1C(=O)c1ccccc1C2=O` [Reactive Blue 2, reference compound], for which the Ki at P2Y12 [3] was 1.3 µM. In addition, on P2Y12 [1], the “right-shift of the concentration-inhibition curve in GTP shift experiments” value is on record as “did not”.
